Test results taken from ChEMBL document CHEMBL1649096, “Study of kaempferol glycoside as an insulin mimic reveals glycon to be the key active structure” (2011).
Calls of active or inactive are those of the source. No cut-off for these calls is given here.

What was measured:
L6 [1] = test: Insulin mimetic activity in rat L6 cells assessed as stimulation of 2-deoxyglucose uptake at 1 nM by enzymatic method relative to untreated control; assay type: functional
L6 [2] = test: Insulin mimetic activity in rat L6 cells assessed as stimulation of 2-deoxyglucose uptake at 0.1 nM by enzymatic method relative to untreated control; assay type: functional
L6 [3] = test: Insulin mimetic activity in rat L6 cells assessed as stimulation of 2-deoxyglucose uptake at 1 mM by enzymatic method relative to untreated control; assay type: functional, cell-based

Structure (SMILES) | Activity (L6 [1]) | Activity (L6 [2]; filed as antagonist) | Activity (L6 [2]) | Activity (L6 [3])
O=c1c(O)c(-c2ccc(O)cc2)oc2cc(O)cc(O)c12 | inactive |  |  | 
O=c1c(O[C@@H]2O[C@H](CO)[C@@H](O)[C@H](O)[C@H]2O)c(-c2ccc(O)cc2)oc2cc(O)cc(O)c12 | inactive | Irreversible Antagonist |  | 
C[C@@H]1O[C@@H](O[C@H]2C(O)O[C@H](CO)[C@@H](O)[C@@H]2O)[C@H](O)[C@H](O)[C@H]1O (some centres not stated) [NEOHESPERIDOSE] | 200% |  | 200% | 
C[C@H]1O[C@H](O[C@H]2[C@H](Oc3c(-c4ccc(O)cc4)oc4cc(O)cc(O)c4c3=O)O[C@H](CO)[C@@H](O)[C@@H]2O)[C@@H](O)[C@@H](O)[C@@H]1O | 200% |  |  | inactive
